# Test results reported in ChEMBL document CHEMBL1135375, “Synthesis and biological activities of YkFA analogues: effects of position 4 substitutions and altered ring size on in vitro opioid activity” (Bioorg Med Chem Lett, 2002).
# Assays:
# [1] = tested on: Opioid receptors; mu & delta; experiment: Selectivity ratio against mu opioid receptor to that of delta opioid receptor was determined
# Mu-type opioid receptor = Mu-type opioid receptor (Cavia porcellus, UniProt P97266); experiment: Concentration required for 50% inhibition of electrically induced contraction of the guinea pig ileum mediated through mu opioid receptor; format: functional, tissue-based
# Mu-type opioid receptor, sequence (P97266 whole entry): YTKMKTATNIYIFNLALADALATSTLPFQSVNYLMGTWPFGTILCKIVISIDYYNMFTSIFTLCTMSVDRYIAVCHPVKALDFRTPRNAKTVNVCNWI
# [2] = target: Delta-type opioid receptor (Mus musculus, UniProt P32300); experiment: Concentration required for 50% inhibition of electrically induced contraction of the mouse vas deferens mediated through delta opioid receptor; format: functional
# Delta-type opioid receptor, sequence (P32300 whole entry): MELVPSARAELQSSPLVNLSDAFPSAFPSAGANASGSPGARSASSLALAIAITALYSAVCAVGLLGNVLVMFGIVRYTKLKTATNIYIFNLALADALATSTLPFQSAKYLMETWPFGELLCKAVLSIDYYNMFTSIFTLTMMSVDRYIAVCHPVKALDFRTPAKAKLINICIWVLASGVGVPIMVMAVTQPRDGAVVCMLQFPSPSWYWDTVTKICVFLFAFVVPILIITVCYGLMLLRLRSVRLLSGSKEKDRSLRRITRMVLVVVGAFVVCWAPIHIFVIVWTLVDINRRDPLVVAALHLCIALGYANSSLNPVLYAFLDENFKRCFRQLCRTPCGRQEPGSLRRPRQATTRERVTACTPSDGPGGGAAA
SMILES,Ratio [1],IC50 (Mu-type opioid receptor),IC50 [2]
C[C@H]1NC(=O)[C@H](Cc2ccccc2)NC(=O)[C@H](CCCCN)N(C(=O)[C@@H](N)Cc2ccc(O)cc2)C1=O,4.9,–,–
NCCCC[C@H]1C(=O)N[C@@H](Cc2ccccc2)C(=O)N[C@H](CC(=O)O)C(=O)N1C(=O)[C@@H](N)Cc1ccc(O)cc1,0.94,–,–
CC(C)[C@@H]1NC(=O)[C@H](Cc2ccccc2)NC(=O)[C@@H](CCCCN)N(C(=O)[C@@H](N)Cc2ccc(O)cc2)C1=O,–,0.2 nM,0.44 nM
C[C@@H]1NC(=O)[C@H](Cc2ccccc2)NC(=O)[C@@H](CCCCN)N(C(=O)[C@@H](N)Cc2ccc(O)cc2)C1=O,–,0.11 nM,0.54 nM
NCCCC[C@@H]1C(=O)N[C@@H](Cc2ccccc2)C(=O)N[C@@H](CC(=O)O)C(=O)N1C(=O)[C@@H](N)Cc1ccc(O)cc1,–,78.8 nM,73.8 nM
C[C@@H]1NC(=O)[C@H](Cc2ccccc2)NC(=O)[C@@H](CCN)N(C(=O)[C@@H](N)Cc2ccc(O)cc2)C1=O,–,3.5 nM,40 nM
CC[C@@H](C)[C@H]1NC(=O)[C@H](Cc2ccccc2)NC(=O)[C@H](CCCCN)N(C(=O)[C@@H](N)Cc2ccc(O)cc2)C1=O,6,–,–
CC(C)[C@H]1NC(=O)[C@H](Cc2ccccc2)NC(=O)[C@H](CCCCN)N(C(=O)[C@@H](N)Cc2ccc(O)cc2)C1=O,2.2,–,–
C[C@H]1NC(=O)[C@H](Cc2ccccc2)NC(=O)[C@H](CCN)N(C(=O)[C@@H](N)Cc2ccc(O)cc2)C1=O,12,–,–
CC[C@H](C)[C@@H]1NC(=O)[C@H](Cc2ccccc2)NC(=O)[C@@H](CCCCN)N(C(=O)[C@@H](N)Cc2ccc(O)cc2)C1=O,–,1.1 nM,6.3 nM
C[C@H]1NC[C@H](Cc2ccccc2)NC(=O)[C@H](CCN)N(C(=O)[C@@H](N)Cc2ccc(O)cc2)C1=O,12,21.4 nM,252 nM
CC(C)C[C@H]1NC(=O)[C@H](Cc2ccccc2)NC(=O)[C@H](CCCCN)N(C(=O)[C@@H](N)Cc2ccc(O)cc2)C1=O,4.5,–,–
CC(C)C[C@@H]1NC(=O)[C@H](Cc2ccccc2)NC(=O)[C@@H](CCCCN)N(C(=O)[C@@H](N)Cc2ccc(O)cc2)C1=O,–,1.4 nM,6.2 nM
